Where two headings read alike, the source gives them in different places.
Key:
N-domain of p97 = target: T1, N-domain of p97 (Homo sapiens, UniProt P55072); assay: STD-NMR build-up measurements with the isolated N-domain; type: binding
T1 construct: additional STD measurements with the isolated N-domain were carried out; made in house
Method: To obtain additional information about the putative binding mode of the selected fragments, full STD-NMR build-up curves were measured for the fragments TROLL2, TROLL7, TROLL8 and TROLL12 and the initial rates of STD build-up (STD0) were calculated. […] As expected, the saturation effects were higher for the ND1 construct compared to the isolated N-domain due to the stronger nuclear Overhauser effect (NOE) of the much larger protein. Because of water suppression, not all hydrogens of the selected fragments were experimentally accessible. For the remaining hydrogen atoms, different STD0 values were determined, indicating a defined orientation of the fragments upon binding to p97 (Supplementary Fig. 7). For TROLL2, TROLL7 and TROLL12 a clear dominance in the saturation of the protons at the hydrophobic aromatic parts of the molecules was visible.
For binding epitope mapping of selected fragments, the initial growth rates approach was used as described. For determination of the initial rate of STD build up (STD0) the STD intensities for seven saturation times (0.5, 0.75, 1.0, 1.5, 2.0, 3.0, 5.0 s) were measured for the ND1 as well as for the isolated N-domain and fitted by an exponential equation using R. The recycle delay (d1) was set to 5 s. For each fragment also a negative control without protein was measured with a saturation time of 5.0 s. Theoretical STD0 values on the basis of the obtained X-ray crystal structure as well as for representative mixed-solvent MD poses were calculated using the Complete Relaxation and Conformational Exchange Matrix Analysis of Saturation Transfer (CORCEMA-ST) software version 3.8[72] and ShiftX version 1.1[73]. Predicted and experimental STD-data were evaluated using the NOE R-factor (see Supplementary Methods in the Supporting Information).

p97-ND1 [1] = target: T2, p97-ND1 (Homo sapiens, UniProt P55072); assay: STD-NMR with p97-ND1 in the presence of 500 µM ADP; type: binding; design: key to mean STD-effect (ND1) / maximum STD-effect (ND1): STD effect = Idiff/Ioff × 100 (%); conditions: for maximum STD-effect (ND1) / mean STD-effect (ND1): Supplementary Table 3; for STD (maximum STD signal measured with p97-ND1): aromatic resonances, 428 µM fragment, 30 µM protein, 500 µM ADP
T2 construct: His6 (TEV protease-cleavable) (N); made in house
T2 sequence (P55072 2-481): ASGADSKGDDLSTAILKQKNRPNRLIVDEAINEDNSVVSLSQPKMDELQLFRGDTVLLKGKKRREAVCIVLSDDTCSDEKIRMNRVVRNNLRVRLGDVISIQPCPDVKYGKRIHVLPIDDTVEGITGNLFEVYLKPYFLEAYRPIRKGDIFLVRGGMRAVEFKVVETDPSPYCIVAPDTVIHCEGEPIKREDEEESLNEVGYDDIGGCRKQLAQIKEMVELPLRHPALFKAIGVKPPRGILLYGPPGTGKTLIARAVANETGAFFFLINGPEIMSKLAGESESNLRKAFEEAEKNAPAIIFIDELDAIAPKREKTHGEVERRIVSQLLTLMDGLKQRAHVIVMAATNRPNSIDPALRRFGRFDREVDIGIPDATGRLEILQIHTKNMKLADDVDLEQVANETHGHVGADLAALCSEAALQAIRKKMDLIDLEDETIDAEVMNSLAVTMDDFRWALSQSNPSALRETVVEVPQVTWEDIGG
Method: The NMR measurements were carried out with the biologically more relevant p97-ND1 construct in the presence of 500 µM ADP to block the nucleotide binding site. The STD effect was calculated by dividing the intensity of the difference spectrum by the intensity of the off-spectrum (Idiff/ Ioff × 100) for each signal. For further analysis only resonances in the aromatic region of the ^1H NMR spectrum of the individual ligand were considered. A mean STD effect of each fragment interacting with p97-ND1 was calculated using the sum of the individual STD effects divided by the number of signals considered. Furthermore, the maximum STD effect of each compound was determined. […] Similar results were obtained in the previously reported fragment screen with p97[26]. An overview of the STD effects is shown in Supplementary Fig. 4.
All Saturation-Transfer-Difference (STD)[32] measurements were performed on a Bruker Avance III 400 MHz spectrometer (Karlsruhe, Germany) operating at 400.13 MHz with a PABBI 1H/D-BB Z-GRD inverse probe at 300 K adjusted with a BSVT (Bruker) temperature control unit. Temperature calibration was carried out with 99.8% CD3OD (282–330 K). The stddiffesgp.3 pulse program from the Bruker pulseprogram library was used for data acquisition. The suppression of the HDO signal (4.703 ppm) was achieved by the excitation sculpting method. The saturation frequency for the on- and off-resonances was set to −400 Hz and −16,000 Hz, respectively. The saturation time was 3 s with a relaxation delay D1 of 4 s.
The protein stock solutions were transferred to a deuterated buffer containing 35 mM potassium phosphate and 25 mM NaCl in D2O at a pD of 7.5 using 0.5 mL Centricon devices (Merck Millipore) with a MWCO of 30 kDa by washing and centrifuging several times at 10,000 × g and 4 °C. Buffer-exchanged protein was adjusted to a concentration of 30 µM with NMR buffer. The respective fragment concentration was 428 µM with a final DMSO-d6 fraction of 5% (v/v). All measurements were performed in the presence of 500 µM ADP (in case of the ND1 domain) and 5 mM MgCl2. All data were analyzed using TopSpin 4.0.8 (Bruker Corporation, Billerica, MA, USA).

p97-N = target: T3, p97-N (Homo sapiens, UniProt P55072); assay: BLI dose-response binding to the isolated N-domain of p97; conditions: for LLEAT: based on KD for p97-N, heavy atom count and clogP; for ScoreBLI: based on sensorgrams from measurements with p97-N, about 1.0 or above = 1:1 binder; for LE: ligand efficiency based on KD for p97-N; for Kd: BLI steady state, 1:1 Langmuir model, errors from the fitting model
T3 construct: Constructs of p97-N (aa 21-199, N-terminal 3 C protease-cleavable His6-tag); His6 (3C protease-cleavable) (N); made in house
T3 sequence (P55072 21-199): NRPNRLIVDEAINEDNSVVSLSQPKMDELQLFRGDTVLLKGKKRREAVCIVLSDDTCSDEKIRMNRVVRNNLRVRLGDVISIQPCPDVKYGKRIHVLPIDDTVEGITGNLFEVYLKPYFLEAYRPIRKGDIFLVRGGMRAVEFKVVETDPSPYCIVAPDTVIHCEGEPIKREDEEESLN
Method: The selected 42 fragments of the screen with the N-domain were tested in a dose-dependent manner using concentrations from 1000.0 µM to 31.3 µM in 1:1 dilution steps. […] The sensorgrams of these fragments were fitted with a 1:1 Langmuir model to estimate their affinities and analyzed with respect to the following parameters: (i) The presence of a stationary phase; (ii) curve shapes according to either a homogeneous (1:1) or a heterogeneous (2:1) binding model, and (iii) justification of a 1:1 binding model via the obtained empirical constants kobs of the association phase. Based on these analyses, a ScoreBLI was calculated (for details see Supplementary Methods in the Supporting Information). The calculated ScoreBLI should be close to or above 1.0 for ligands that can be described with a 1:1 model, whereas ligands showing unspecific binding yield values << 1.0. Based on the ScoreBLI, we divided the fragments into a low-scoring (<0.70) and a high-scoring (≥0.70) group.
(§1) Protein constructs for BLI measurements were enzymatically biotinylated using BirA[28]. Biotinylated p97 was loaded on Super Streptavidin Biosensors (SSA) obtained from Sartorius as follows. SSA-sensors were equilibrated in PBS-buffer, loaded with a protein solution containing 50 µg/mL (p97-ND1) or 100 µg/mL (p97-N) protein, blocked with biocytin and washed in PBS buffer. Reference SSA-sensors were set up by blocking them with a 10 µg/mL biocytin solution for 5 min[27]. The SSA-sensors were loaded to a shift of up to 7 nm with p97-ND1 and 10 nm with p97-N, respectively.
(§2) Screening plates were prepared by adding 10 µL of a 10 mM DMSO stock solution of library compound to 190 µL of PBS buffer (containing 0.05% TWEEN 20, 1 mM DTT and 5 mM MgCl2 [only for p97-ND1]) in 96 well plates (Greiner). The final DMSO concentration was 5% (v/v). All BLI measurements were performed on an Octet RED96e (Sartorius) device.
(§3) Selected fragments of the initial screenings were confirmed by dose-response-titrations using six concentrations ranging from 1000 to 31.3 µM in a 1:1 dilution series. Every concentration was measured twice. The assay settings were as follows: baseline measurement 15 s; association time 120 s and dissociation time 180 s. The double referenced data were further analyzed in Origin Pro to estimate the affinity by fitting the signals of the steady states to a 1:1 Langmuir model. For the fitting all measured data points (n = 2) were considered.
Definition of the quality score “ScoreBLI”
For selecting fragments for further analysis, the ScoreBLI was def ined as : […]
SSSSSSSSSSBBBBBB = rrmmmmmmmm 1:1rrmmmmmmmm 2:12 SSkkkkkkkk rmean 1:12 is the mean of the r2 coefficients of t he r egr es s ions of all association phases measured f or a given f ragment. The data were f itted with a 1:1 binding model:
RRPP = RRPPee ?1 − SS −(kkkkkkkk PP ) ? with RRPP the shift at the time t, k obs the empirical rate constant and RRPPee the shift at equilibrium.
In analogy, the rmean 2:12 was def ined by f itting with a 2:1 binding model:
RRPP = RRPPee 1 ?1 − SS −(kkkkkkkk1 PP) ? + RRPPee 2 ?1 − SS −(kkkkkkkk2 PP) ? A ligand f ollowing a 1:1 model would result in a good rmean2 f or both functions, whereas f or a lig and which is better described with a 2:1 model the rmean2 f or a 1:1 model would decrease, resulting in an overall decreased value.
In case of a 1:1 model the empirical rate constant k obs is proportional to the concentration of […]
kkkkkkkk = kkPP [LL ] + kkdd with ka t he association rate constant and kd t he dissociation rate constant. Theref ore, all observed empirical rate constants of a ligand were subjected to a linear regression model, which yielded the value r kobs2 .
A Langmuir model was used to es t im at e the affinities of the fragments. The use of this model requires that a chemical equilibrium is reached. To analyze whether this condition was met, the responses of the last 10 seconds of each association phase were f itted with a linear model. […]

p97-ND1 [2] = target: T2, p97-ND1; assay: BLI dose-response binding to the p97-ND1 construct
Description: As starting point for the initial screen, a BLI binding assay was developed with a p97-ND1 construct (amino acids 2-481) to allow validation with adenosine diphosphate (ADP) as a positive control. The p97-ND1 construct was enzymatically biotinylated via an Avi-Tag and Escherichia coli biotin ligase[28] and loaded to high response (>5 nm) on Super Streptavidin Biosensors (SSA), yielding a homogeneous sensor surface. […] The kinetic analysis of the sensorgrams indicated a clear 1:1 binding model for ADP. […] Another surprising result were the high responses upon ADP-binding with shifts over 0.7 nm. These high values indicate that the BLI signal is not only dependent on the molar weight as in SPR but may also reflect conformational changes induced in p97 upon ADP binding.
For 12 fragments, a dose-dependent binding was observed and a 1:1 Langmuir model could be applied to obtain the respective KD value. The determined KD^(p97-ND1) values mostly agreed well with those previously determined for the respective fragments with the isolated N-domain. […] TROLL1 and VIK40 were therefore not considered further.
as §1, §2, §3

p97 ND1 fragment = conditions: read-out: reported affinity of ADP, cited from earlier work
[3] = BLI steady state, 1:1 Langmuir model, errors from the fitting model, read-out: KD p97-ND1

T1 sequence (P55072 21-199 limits assumed): as the sequence (P55072 21-199) above

Row | maximum STD-effect (ND1) (p97-ND1 [1]) | mean STD-effect (ND1) (p97-ND1 [1]) | STD (maximum STD signal measured with p97-ND1) (p97-ND1 [1]) [%] | LLEAT (p97-N) | ScoreBLI (p97-N) | LE (p97-N) | Kd (p97-ND1 [2]; [3]) [µM] | Kd (p97-N) [µM] | SMILES | binding to the N-domain by STD-NMR (N-domain of p97) | Kd (p97 ND1 fragment; ND1 fragment spanning amino acids 1-458) [µM] | Kd (p97 ND1 fragment; ND1 fragment spanning amino acids 1-480) [µM] | Kd (p97-ND1 [2]; Langmuir model, steady state measurements of a dilution series, read-out: KD of ADP to p97-ND1 (steady state)) [µM] | Kd (p97-ND1 [2]; global exponential regression, 1:1 binding model, read-out: affinity of ADP to p97-ND1 (kinetic analysis)) [µM] | ScoreBLI (p97-ND1 [2]; score evaluated with binding data for ADP)
1 | 18.3 | 18.3 | 18.3 | 0.27 | 0.94 | 0.30 | 192 ± 92 | 147 ± 32 | Nc1nc2c(s1)CN(Cc1ccccc1)CC2 [VIK20] |  |  |  |  |  | 
2 | 57.4 | 54.3 | 57.4 | 0.27 | 0.89 | 0.33 | 445 ± 223 | 625 ± 89 | Nc1[nH]ncc1-c1ccc(Cl)cc1 [TROLL18] |  |  |  |  |  | 
3 |  |  |  |  |  |  |  |  | Nc1ncnc2c1ncn2[C@@H]1O[C@H](COP(=O)(O)OP(=O)(O)O)[C@@H](O)[C@H]1O [ADP, adenosine diphosphate, reference compound] |  | 0.2 | 0.098 | 0.2 ± 0.014 | 0.239 ± 0.009 | 1.02
4 | 67.4 | 55.4 | 67.4 | 0.16 | 0.93 | 0.27 | 290 ± 33 | 409 ± 61 | Cc1ccc(-c2csc3nc(CO)cn23)cc1 [TROLL14] |  |  |  |  |  | 
5 | 47.9 | 44.5 | 47.9 | 0.34 | 0.84 | 0.33 |  | 354 ± 17 | Cc1oc(CN)nc1-c1ccccc1 [TROLL12] | confirmed the binding |  |  |  |  | 
6 | 72.5 | 66.5 | 72.5 | 0.30 | 0.75 | 0.39 | 243 ± 16 | 160 ± 22 | O=C(O)Cc1cc2ccccc2[nH]1 [TROLL6] |  |  |  |  |  | 
7 | 41.0 | 33.1 | 41.0 | 0.40 | 0.91 | 0.41 | 598 ± 214 | 245 ± 43 | Cc1ccc(-c2cc(N)n[nH]2)o1 [TROLL8] | confirmed the binding |  |  |  |  | 

Row | SMILES | maximum STD-effect (ND1) (p97-ND1 [1]) | mean STD-effect (ND1) (p97-ND1 [1]) | STD (maximum STD signal measured with p97-ND1) (p97-ND1 [1]) [%] | LLEAT (p97-N) | ScoreBLI (p97-N) | LE (p97-N) | Kd (p97-ND1 [2]; [3]) [µM] | Kd (p97-N) [µM] | binding to the N-domain by STD-NMR (N-domain of p97) | Kd (p97 ND1 fragment; ND1 fragment spanning amino acids 1-458) [µM] | Kd (p97 ND1 fragment; ND1 fragment spanning amino acids 1-480) [µM] | Kd (p97-ND1 [2]; Langmuir model, steady state measurements of a dilution series, read-out: KD of ADP to p97-ND1 (steady state)) [µM] | Kd (p97-ND1 [2]; global exponential regression, 1:1 binding model, read-out: affinity of ADP to p97-ND1 (kinetic analysis)) [µM] | ScoreBLI (p97-ND1 [2]; score evaluated with binding data for ADP)
8 | NCC(O)c1ccc(Cl)cc1 (stereo not shown) [TROLL7] | 37.3 | 34.5 | 37.3 | 0.42 | 0.91 | 0.45 |  |  | confirmed the binding |  |  |  |  | 
9 | NCC(O)c1ccc(Br)cc1 (stereo not shown) [TROLL2] | 37.7 | 36.0 | 37.7 | 0.47 | 0.83 | 0.52 | 321 ± 67 | 56 ± 46 | confirmed the binding |  |  |  |  | 

Reference: PMC9814400 (Communications Chemistry, 2022)
